Measured values taken from PubChem BioAssay AID2060606 (Molecular Pharmacology Branch, DTP, NCI, 2025).
pIC50: −log10 of the molar value.

Test system: 922993-354-T-J3-PDC complex spheroids, viability, % test/control
Experiment: Anticancer human tumor 922993-354-T-J3-PDC patient-derived endometrial carcinoma cell line growth inhibition [CLK]
Conditions: for pIC50: curve of first compound; for viability, T/C: stronger effect = lower value
Text: A high-throughput screen of multi-cell type tumor spheroids was designed to identify active combinations of […] and targeted small molecules. Complex spheroids include a stromal component modeled by human endothelial cells (HUVEC) and fibroblasts modeled by human mesenchymal stem cells (MSCs). The concentration ranges selected for each drug and investigational agent were based upon clinically achievable concentrations if the clinical Cmax of the agent was known.
Compounds. The drugs and investigational agents: cirtuvivint (SM08502; NSC835563), CC-671 (NSC850746), vemurafenib (NSC761431), tapotoclax (NSC804041), sotorasib (NSC818433), adagrasib (NSC831453), MRTX-1133 (NSC836407), BAY2416964 (NSC825713), copanlisib (NSC816437), inavolisib (NSC800729), abemaciclib (NSC768073), osimertinib (NSC779217), entinostat (NSC756642), eltanexor (KPT-8602, NSC794443), venetoclax (NSC766270), ceralasertib (NSC777638), bortezomib (NSC756655), olaparib (NSC753686), talazoparib (NSC767125), alisertib (NSC759677), peposertib (NSC802822), gemcitabine (NSC613327), 5-fluorouracil (NSC19893), SN-38 (NSC673596), oxaliplatin (NSC266046), paclitaxel (NSC125973), and doxorubicin (NSC123127), were obtained from the National Cancer Institute (NCI) Developmental Therapeutics Program Chemical Repository. The FDA-approved anticancer drug set is available from the Developmental Therapeutics Program at https://dtp.cancer.gov/organization/dscb/obtaining/available plates.htm. […] The stock solutions were prepared in dimethyl sulfoxide (DMSO, Sigma-Aldrich, St. Louis, MO, cat. D2650), except for the platinum complexes which were prepared in saline (Quality Biological, Gaithersburg, MD, cat. 114-055-101), at 800-fold the tested concentration and stored at -70 degrees C prior to their use. All drugs and investigational agents were tested over a range starting from a high concentration at or near the clinical Cmax and decreasing in half-log increments. If the clinical Cmax for an agent had not been determined, the highest concentration tested was 10 microM.
Cell Culture. All cells were maintained in an incubator at 37 degrees C and 5% CO2 with 95% humidity. The PDC lines were cultured according to standard operating procedures established by the NCI PDMR. Briefly, all PDCs were thawed and cultured in Matrigel-coated flasks prepared with a working solution of 1X Ham's F-12 nutrient mix, without supplementation (Invitrogen, Waltham, MA, cat. 11765054), 100 U/mL penicillin-streptomycin (Invitrogen, cat. 15140122), and 2.5% Matrigel (Corning Inc., Corning, NY, cat. 354248) for the first three passages. The 947758-054-R-J2-PDC line was cultured in 6B/Colon 1A media, which includes advanced DMEM/F-12 (Thermo Fisher Scientific, cat. 12634028), 10 mM HEPES (Thermo Fisher Scientific, cat. 15630080), 1X GlutaMAX supplement (Thermo Fisher Scientific, cat. 35050061), 0.1 mg/mL primocin (InvivoGen, cat. ant-pm-2), 10% defined fetal bovine serum, heat inactivated (HyClone Laboratories Inc., cat. SH30070.03HI), 1.25 mM N-Acetyl-L-cysteine (Sigma-Aldrich, cat. A9165), 10 mM nicotinamide (Sigma-Aldrich, cat. N0636), 1X B-27 supplement (Thermo Fisher Scientific, cat. 17504044), 1X N-2 supplement (Thermo Fisher Scientific, cat. 17502048), and 10 microM Y-27632 dihydrochloride (Tocris Bioscience, cat. 1254). The 876862-298-R-J1-PDC was cultured in 6E media, which includes all 6B/Colon 1A media components plus 50% L-WRN conditioned media (ATCC, cat. CRL-3276), 50 ng/mL recombinant human EGF recombinant protein (hEGF; Thermo Fisher Scientific, cat. PHG0311), 10 ng/mL recombinant human fibroblast growth factor 10 (hGFG-10; PeproTech, cat. 100-26), 1 ng/mL recombinant human fibroblast growth factor 2 (hFGF-2; PeproTech, cat. 100-18B), and 1 µM prostaglandin E2 (PGE2; Tocris, cat. 2296). The 227483-062-R1-J1-PDC line was cultured in Panc media, containing all 6E components except hFGF-2, with the addition of 500 nM SB-431542 (Selleckchem, cat. S1067) and 10 nM gastrin (Tocris, cat. 3006). […]
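Note: spheroids exposed to the agents for 7 days before readout.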

Structure (SMILES): CCCS(=O)(=O)Nc1ccc(F)c(C(=O)c2c[nH]c3ncc(-c4ccc(Cl)cc4)cc23)c1F + CN1CCN(c2cc(C(=O)Nc3cc4cc(-c5cnn(C)c5)ccc4cn3)ccn2)CC1
- pIC50 (second compound 0.0316 µM): < 5.00
- pIC50 (second compound 0.1 µM): 5.04
- pIC50 (second compound 0.316 µM): > 7.50
- pIC50 (second compound 1 µM): > 7.50
- pIC50 (second compound 3.16 µM): > 7.50
- pIC50 (second compound 10 µM): > 7.50
- viability, T/C (second compound 0.0316 µM, first compound 0.0316 µM): 95.3%
- viability, T/C (second compound 0.0316 µM, first compound 0.1 µM): 113%
- viability, T/C (second compound 0.0316 µM, first compound 0.316 µM): 118%
- viability, T/C (second compound 0.0316 µM, first compound 1 µM): 97.9%
- viability, T/C (second compound 0.0316 µM, first compound 3.16 µM): 96.6%
- viability, T/C (second compound 0.0316 µM, first compound 10 µM): 65.3%
- viability, T/C (second compound 0.1 µM, first compound 0.0316 µM): 107%
- viability, T/C (second compound 0.1 µM, first compound 0.1 µM): 90.5%
- viability, T/C (second compound 0.1 µM, first compound 0.316 µM): 91.5%
- viability, T/C (second compound 0.1 µM, first compound 1 µM): 87.6%
- viability, T/C (second compound 0.1 µM, first compound 3.16 µM): 86.2%
- viability, T/C (second compound 0.1 µM, first compound 10 µM): 46.7%
- viability, T/C (second compound 0.316 µM, first compound 0.0316 µM): 46.6%
- viability, T/C (second compound 0.316 µM, first compound 0.1 µM): 40.4%
- viability, T/C (second compound 0.316 µM, first compound 0.316 µM): 43.4%
- viability, T/C (second compound 0.316 µM, first compound 1 µM): 43.9%
- viability, T/C (second compound 0.316 µM, first compound 3.16 µM): 44.6%
- viability, T/C (second compound 0.316 µM, first compound 10 µM): 26.7%
- viability, T/C (second compound 1 µM, first compound 0.0316 µM): 0.14%
- viability, T/C (second compound 1 µM, first compound 0.1 µM): 0.16%
- viability, T/C (second compound 1 µM, first compound 0.316 µM): 0.15%
- viability, T/C (second compound 1 µM, first compound 1 µM): 0.15%
- viability, T/C (second compound 1 µM, first compound 3.16 µM): 1.71%
- viability, T/C (second compound 1 µM, first compound 10 µM): 1.78%
- viability, T/C (second compound 3.16 µM, first compound 0.0316 µM): 0.09%
- viability, T/C (second compound 3.16 µM, first compound 0.1 µM): 0.13%
- viability, T/C (second compound 3.16 µM, first compound 0.316 µM): 0.82%
- viability, T/C (second compound 3.16 µM, first compound 1 µM): 0.14%
- viability, T/C (second compound 3.16 µM, first compound 3.16 µM): 2.22%
- viability, T/C (second compound 3.16 µM, first compound 10 µM): 1.32%
- viability, T/C (second compound 10 µM, first compound 0.0316 µM): 0.18%
- viability, T/C (second compound 10 µM, first compound 0.1 µM): 0.16%
- viability, T/C (second compound 10 µM, first compound 0.316 µM): 1.26%
- viability, T/C (second compound 10 µM, first compound 1 µM): 0.19%
- viability, T/C (second compound 10 µM, first compound 3.16 µM): 1.53%
- viability, T/C (second compound 10 µM, first compound 10 µM): 0.25%
